Source: patent US12419888B2, “Methods of treating elevated plasma cholesterol” (INSTITUT DE CARDIOLOGIE DE MONTREAL, priority 2020, dated 2025)

Test system: LDLR protein levels in HepG2 cells
Assay: Western blot analysis of relative LDLR protein levels in HepG2 cells after treatment
Assay type: cell-based, human
Details: HepG2 cells incubated overnight with compound, 0.2 μM to 20 μM
Procedure: Cell culture, treatments and cell viability assay. For phenotypic screening of PCSK9 modulators and/or LDLR small molecule inducers, human HepG2 cells were incubated overnight in conditioned media containing chemical compounds resuspended in DMSO at concentration ranging from 0.2 μM to 20 μM. […] Following incubation, media have been replaced and cells incubated for 4 h with 100 μL of phenol red-free DMEM containing 0.5 mg/mL of MTT (3-[4,5-dimethylthiazol-2-yl]-2,5-diphenyltetrazolium bromide; thiazolyl blue; catalog no. M5655, Sigma-Aldrich), following manufacturer's instructions.
Western Blot Analysis, Immunocytochemistry and LDLR Activity Assay. Following incubation, cells were washed three times in phosphate-buffered saline (PBS) and lysed in radioimmune precipitation assay buffer (50 mM Tris/HCl, pH 8.0, 1% (v/v) Nonidet P-40, 0.5% sodium deoxycholate, 150 mM NaCl, and 0.1% (v/v) SDS) supplemented with a complete protease inhibitor mixture (catalog no. 11 697 498 001, Roche Applied Science). Proteins were separated by SDS polyacrylamide gel electrophoresis, blotted on nitrocellulose membranes (Bio-Rad), blocked incubated with indicated antibodies as described (Poirier S, et al., Cell Rep, 2015). For immunocytochemistry analysis, cells were permeabilized or not with 0.1% Triton X-100/PBS for 10 min, and incubated with 150 mM glycine, blocked and incubated with indicated primary and secondary antibodies. Immunofluorescence analyses were performed with an Olympus FluoView FV10i confocal microscope (Poirier et al., Cell Rep. 2015; 13(10):2064-2071). For LDLR activity assay, HepG2 cells were incubated overnight without or with a given compound in the presence of 5 μg/ml fluorescent labelled DiI-LDL (Alfa Aesar, Cat. #J65330) and co-stained for LDLR if applicable, as described (Poirier et al., J Biol Chem. 2009; 284(42):28856-28864). Immunofluorescence analyses were performed with an Olympus FluoView FV10i confocal microscope.

Compound | LDLR Fold (relative LDLR protein levels)
Cc1cccc([C@H]2c3[nH]c4ccccc4c3CCN2C(=O)CCc2ccccc2)n1 (stereo in doubt) [Compound 27, 1-[1-(6-methylpyridin-2-yl)-1H,2H,3H,4H,9H-pyrido[3,4-b]indol-2-yl]-3-phenylpropan-1-one] | 1.0 Fold
CC1=NC2=NC(NCCc3c[nH]c4ccccc34)=N[C@H](c3ccccc3)N2C(O)=C1 (stereo in doubt) [Compound 29, 2-{[2-(1H-indol-3-yl)ethyl]amino}-8-methyl-4-phenyl-4H-pyrimido[1,2-a][1,3,5]triazin-6-ol] | 0.9 Fold
CC1=NC2=NC(N3CCC(Cc4ccccc4)CC3)=N[C@H](c3ccccc3)N2C(O)=C1 (stereo in doubt) [Compound 30, 2-(4-benzylpiperidin-1-yl)-8-methyl-4-phenyl-4H-pyrimido[1,2-a][1,3,5]triazin-6-ol] | 0.6 Fold
CC1=NC2=NC(N3CCN(c4ccccc4)CC3)=N[C@H](c3ccc(Cl)cc3)N2C(O)=C1 (stereo in doubt) [Compound 31, 4-(4-chlorophenyl)-8-methyl-2-(4-phenylpiperazin-1-yl)-4H-pyrimido[1,2-a][1,3,5]triazin-6-ol] | 1.1 Fold
CC1=NC2=NC(N3CCC(Cc4ccccc4)CC3)=N[C@H](c3cccnc3)N2C(O)=C1 (stereo in doubt) [Compound 34, 2-(4-benzylpiperidin-1-yl)-8-methyl-4-(pyridin-3-yl)-4H-pyrimido[1,2-a][1,3,5]triazin-6-ol] | 1.0 Fold
O=C([C@H]1CCCO1)N1CCN(c2nnc(-c3ccccc3)c3ccccc23)CC1 (stereo in doubt) [Compound 42, 1-[4-(oxolane-2-carbonyl)piperazin-1-yl]-4-phenylphthalazine] | 0.6 Fold
Cc1ccc2nccc(C(=O)N3CCC[C@H](Cn4cc(C(C)(C)N)nn4)C3)c2c1 (stereo in doubt) [Compound 44, 2-[1-({1-[(6-methylquinolin-4-yl)carbonyl]piperidin-3-yl}methyl)-1H-1,2,3-triazol-4-yl]propan-2-amine] | 1.2 Fold
O=C(Nc1ccccc1)[C@H]1CCCN(C(=O)c2cc(C3CC3)nc3ccccc23)C1 (stereo in doubt) [Compound 45, 1-(2-cyclopropylquinoline-4-carbonyl)-N-phenylpiperidine-3-carboxamide] | 1.2 Fold
O=C(Nc1ccccc1)[C@H]1CCCN(C(=O)c2cc(-c3ccncc3)nc3ccccc23)C1 (stereo in doubt) [Compound 46, N-phenyl-1-[2-(pyridin-4-yl)quinoline-4-carbonyl]piperidine-3-carboxamide] | 1.1 Fold
COc1cc(C(=O)N2CCC[C@H](CNS(=O)(=O)c3cccs3)C2)c2ccccc2n1 (stereo in doubt) [Compound 48, N-{[1-(2-methoxyquinoline-4-carbonyl)piperidin-3-yl]methyl}thiophene-2-sulfonamide] | 1.0 Fold
Cc1cc(C(=O)N2CCC[C@H](c3ccc(C(=O)O)cc3)C2)c2ccc(F)cc2n1 (stereo in doubt) [Compound 49, 4-[1-(7-fluoro-2-methylquinoline-4-carbonyl)piperidin-3-yl]benzoic acid] | 1.6 Fold
Cc1cccc(C(=O)N2CCC[C@H](Cn3cc(C(C)(C)N)nn3)C2)c1C (stereo in doubt) [Compound 50, 2-(1-{[1-(2,3-dimethylbenzoyl)piperidin-3-yl]methyl}-1H-1,2,3-triazol-4-yl)propan-2-amine] | 1.1 Fold
